Values joined by “and” are separate entries in the source; they are usually repeats but may differ in a detail not shown here. Identical values can stand only once. Like-named read-outs stand apart in the source and are kept apart here.
Biological target: JNK1 (Homo sapiens, UniProt P45983)
Test: DELFIA kinase assay, JNK1
Format: biochemical
Procedure: Assay DELFIA (Dissociation Enhanced Lanthanide Fluorescence Immuno-Assay) Assay:
Before initiation of kinase reactions, compounds were pre-incubated with the enzyme for 10 minutes. Pre-incubation reactions contained 50 mM HEPES pH 7.3, 10 mM MgCl2, 1 mM DTT, 75 mM NaCl, 1 mM EDTA, 1 mM EGTA, 0.01% CHAPS, 2 nM JNK1, 6 ug/mL biotinylated GST-ATF2, 0.1 mg/ml BSA, 5% DMSO and 0-100 μM compound in a total volume of 40 μL. After a 10 minute room temperature pre-incubation, 10 μL of 35 μM ATP was added to start the reaction (final concentration of ATP=7 uM). Reactions were incubated at room temperature for 30 minutes. A small aliquot (10 uL) was taken and quenched by adding into 190 uL of DELFIA Assay buffer containing 100 mM EDTA. The amount of phosphate transferred to biotinylated GST-ATF2 was measured using the Dissociation Enhanced Lanthanide Fluorescence Immuno-assay (DELFIA) from Perkin Elmer according to manufacturers protocol. Briefly, biotinylated GST-ATF2 was captured on streptavidin coated plates for 1 hour, washed twice, then incubated for 1 hour with a 1:1000 dilution of rabbit-anti-phospho-ATF2 antibody and a 1:3500 dilution of Europium-labeled anti-rabbit secondary antibody. Free antibody was removed with six washes, Europium was dissociated from the antibody, and Europium fluorescence was measured using an excitation wavelength of 340 nm and an emission wavelength of 615 nm. JNK2 and JNK3 kinase reactions were carried out similarly, with the exception that the final concentration of ATP was 4 uM and 2 uM, respectively.

[1] = DELFIA, biotinylated GST-ATF2 substrate, 10 minute pre-incubation, final ATP 7 uM
[2] = DELFIA assay, 2 nM JNK1, 7 uM ATP, 10 min pre-incubation, second table, read-out: JNK 1 IC50

Sequence of JNK1 (P45983 whole entry, species assumed): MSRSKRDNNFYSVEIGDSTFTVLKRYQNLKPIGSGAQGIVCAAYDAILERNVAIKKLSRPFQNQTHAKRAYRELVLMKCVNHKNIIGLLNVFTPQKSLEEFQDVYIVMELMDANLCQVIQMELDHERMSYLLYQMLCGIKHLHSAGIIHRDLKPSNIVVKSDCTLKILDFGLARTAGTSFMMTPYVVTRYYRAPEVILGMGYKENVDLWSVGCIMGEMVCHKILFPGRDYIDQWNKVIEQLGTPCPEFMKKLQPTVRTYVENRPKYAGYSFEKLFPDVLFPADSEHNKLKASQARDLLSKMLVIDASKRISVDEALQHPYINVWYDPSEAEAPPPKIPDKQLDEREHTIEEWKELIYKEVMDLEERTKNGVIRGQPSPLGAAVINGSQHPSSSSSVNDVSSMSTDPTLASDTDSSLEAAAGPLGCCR

| Structure (SMILES) | IC50 [1] | IC50 [2] | IC50 (DELFIA assay, 2 nM JNK1, 7 uM ATP, 10 min pre-incubation) |
| --- | --- | --- | --- |
| CCOC(=O)N1CCC(NC(=O)c2cccc(C(=O)NCc3ccc(-n4cccn4)cc3)n2)CC1 [Compound 72] | 102 to 959 nM |  |  |
| CCOC(=O)N1CCC(NC(=O)c2cccc(C(=O)NCc3ccc(C)c(F)c3)n2)CC1 [Compound 73] | > 1000 nM and 1030 to 10000 nM |  |  |
| CCOC(=O)N1CCC(NC(=O)c2cccc(C(=O)NCc3ccc(OC)c(OC)c3)n2)CC1 [Compound 74] | 102 to 959 nM |  |  |
| COC(=O)[C@H](C)NC(=O)c1cccc(C(=O)NCc2ccc3nc(N)sc3c2)n1 [Compound 75] | 102 to 959 nM |  |  |
| CS(=O)(=O)c1ccc(-n2cc(CNC(=O)c3cccc(C(=O)NC4CCC4)n3)cn2)cc1 [Compound 76] | 4 to 19 nM and 4 to 97 nM | 10 nM |  |
| CS(=O)(=O)c1ccc(-n2cc(CNC(=O)c3cccc(C(=O)NC4CCCCC4)n3)cn2)cc1 [Compound 77] | 4 to 97 nM |  |  |
| Cc1cc(NC(=O)c2cccc(C(=O)NCc3cnn(-c4ccc(S(C)(=O)=O)cc4)c3)n2)no1 [Compound 78] | 4 to 97 nM |  |  |
| CC(C)NC(=O)c1cccc(C(=O)NCc2nc3ccccc3s2)n1 [Compound 85] | 4 to 97 nM |  |  |
| COc1ccc(-c2cc(CNC(=O)c3cccc(C(=O)NC(C)C)n3)no2)cc1 [Compound 86] | 4 to 97 nM |  |  |
| CC(C)NC(=O)c1cccc(C(=O)NCc2ccc3sc(NC(N)=O)nc3c2)n1 [Compound 87] | 4 to 97 nM |  |  |
| CC(C)NC(=O)c1cccc(C(=O)NCc2ccc(S(C)(=O)=O)cc2)n1 [Compound 88] | 102 to 959 nM |  |  |
| CC(C)NC(=O)c1cccc(C(=O)NCc2ccc3c(c2)OCO3)n1 [Compound 89] | 102 to 959 nM |  |  |
| CC(C)NC(=O)c1cccc(C(=O)Nc2cccnc2)n1 [Compound 90] | > 1000 nM and 1030 to 10000 nM |  |  |
| CC(C)NC(=O)c1cccc(C(=O)Nc2ccc3nccnc3c2)n1 [Compound 91] | > 1000 nM and 1030 to 10000 nM |  |  |
| Cc1cnc(CNC(=O)c2cccc(C(=O)NC(C)C)n2)cn1 [Compound 92] | > 1000 nM and 1030 to 10000 nM |  |  |
| CC(C)NC(=O)c1cccc(C(=O)NCc2cccnc2)n1 [Compound 93] | 102 to 959 nM |  |  |
| CC(C)NC(=O)c1cccc(C(=O)NCC2CCN(C(=O)OC(C)(C)C)CC2)n1 [Compound 94] | 102 to 959 nM |  |  |
| CC(C)NC(=O)c1cccc(C(=O)NCC2CCN(C(=O)OC(C)(C)C)C2)n1 (centres unmarked) [Compound 95] | > 1000 nM and 1030 to 10000 nM |  |  |
| CC(C)NC(=O)c1cccc(C(=O)NCc2cccc(Cl)c2)n1 [Compound 96] | 102 to 959 nM |  |  |
| CC(C)NC(=O)c1cccc(C(=O)NCc2ccc(Cl)cc2)n1 [Compound 97] | 102 to 959 nM |  |  |
| CC(C)NC(=O)c1cccc(C(=O)NCc2ccc(S(N)(=O)=O)cc2)n1 [Compound 98] | 102 to 959 nM |  |  |
| CC(C)NC(=O)c1cccc(C(=O)NCc2ccc(Cl)nc2)n1 [Compound 99] | 102 to 959 nM |  |  |
| CC(C)NC(=O)c1cccc(C(=O)NCc2cnn(-c3ccccc3)c2)n1 [Compound 100] | 4 to 97 nM |  |  |

| Structure (SMILES) | IC50 [1] | IC50 [2] | IC50 (DELFIA assay, 2 nM JNK1, 7 uM ATP, 10 min pre-incubation) |
| --- | --- | --- | --- |
| CC(C)NC(=O)c1cccc(C(=O)NCc2ccccn2)n1 [Compound 101] | 1030 to 10000 nM and > 1000 nM |  |  |
| Cc1nn(C)c(C)c1CNC(=O)c1cccc(C(=O)NC(C)C)n1 [Compound 102] | 1030 to 10000 nM and > 1000 nM |  |  |
| Cc1cc(CNC(=O)c2cccc(C(=O)NC(C)C)n2)nn1C [Compound 103] | 1030 to 10000 nM and > 1000 nM |  |  |
| CC(C)NC(=O)c1cccc(C(=O)NCc2nccs2)n1 [Compound 104] | 1030 to 10000 nM and > 1000 nM |  |  |
| Cc1nn(-c2ccccc2)c(C)c1CNC(=O)c1cccc(C(=O)NC(C)C)n1 [Compound 105] | 1030 to 10000 nM and > 1000 nM |  |  |
| CC(C)NC(=O)c1cccc(C(=O)NCc2nc3ccccc3[nH]2)n1 [Compound 106] | 102 to 959 nM |  |  |
| CC(C)NC(=O)c1cccc(C(=O)NCc2nc3ccccc3n2C)n1 [Compound 107] | > 1000 nM and 1030 to 10000 nM |  |  |
| Cc1nc2cc(CNC(=O)c3cccc(C(=O)NC(C)C)n3)ccc2[nH]1 [Compound 108] | 102 to 959 nM |  |  |
| CC(C)NC(=O)c1cccc(C(=O)NCc2ccc(-n3cccn3)cc2)n1 [Compound 109] | 102 to 959 nM |  |  |
| Cc1ccc(CNC(=O)c2cccc(C(=O)NC(C)C)n2)cc1F [Compound 110] | 102 to 959 nM |  |  |
| COc1ccc(CNC(=O)c2cccc(C(=O)NC(C)C)n2)cc1OC [Compound 111] | 102 to 959 nM |  |  |
| CC(C)NC(=O)c1cccc(C(=O)NCc2ccc(-c3ccccc3)cc2)n1 [Compound 112] | 102 to 959 nM |  |  |
| CC(C)NC(=O)c1cccc(C(=O)NCc2ccc(N)nc2)n1 [Compound 113] | 102 to 959 nM |  |  |
| CC(C)NC(=O)c1cccc(C(=O)NCc2ccc(N3CCCC3)nc2)n1 [Compound 114] | 102 to 959 nM |  |  |
| CC(C)NC(=O)c1cccc(C(=O)NCc2ccc(N3CCOCC3)nc2)n1 [Compound 115] | 102 to 959 nM |  |  |
| CC(C)NC(=O)c1cccc(C(=O)NCc2cnn(C)c2)n1 [Compound 116] | > 1000 nM and 1030 to 10000 nM |  |  |
| CC(C)NC(=O)c1cccc(C(=O)NCc2cnn(C(C)C)c2)n1 [Compound 117] | 102 to 959 nM |  |  |
| CC(C)NC(=O)c1cccc(C(=O)NCc2ccc(-c3ccccn3)s2)n1 [Compound 118] | 102 to 959 nM |  |  |
| CC(C)NC(=O)c1cccc(C(=O)NCc2cn[nH]c2)n1 [Compound 119] | > 1000 nM and 1030 to 10000 nM |  |  |
| CC(C)NC(=O)c1cccc(C(=O)NCc2ccc(N3CCCC3=O)cc2)n1 [Compound 120] | 102 to 959 nM |  |  |
| CC(C)NC(=O)c1cccc(C(=O)NC(C)c2ccc(S(C)(=O)=O)cc2)n1 (centres unmarked) [Compound 121] | 102 to 959 nM |  |  |
| CC(C)NC(=O)c1cccc(C(=O)NNc2ccc(S(C)(=O)=O)cc2)n1 [Compound 122] | > 1000 nM and 1030 to 10000 nM |  |  |
| CC(C)NC(=O)c1cccc(C(=O)N[C@H](C)c2ccc(O)cc2)n1 [Compound 123] | 102 to 959 nM |  |  |

| Structure (SMILES) | IC50 [1] | IC50 [2] | IC50 (DELFIA assay, 2 nM JNK1, 7 uM ATP, 10 min pre-incubation) |
| --- | --- | --- | --- |
| CC(C)NC(=O)c1cccc(C(=O)N[C@@H](C)c2ccc(O)cc2)n1 [Compound 124] | 102 to 959 nM |  |  |
| CC(C)NC(=O)c1cccc(C(=O)NCc2cccc(-c3ccccc3)c2)n1 [Compound 125] | 4 to 97 nM |  |  |
| CC(C)NC(=O)c1cccc(C(=O)NCc2cccc(Oc3ccccn3)c2)n1 [Compound 126] | 102 to 959 nM |  |  |
| Cc1nc2cc(CNC(=O)c3cccc(C(=O)NC(C)C)n3)ccc2n1C [Compound 127] | 102 to 959 nM |  |  |
| Cc1nc2ccc(CNC(=O)c3cccc(C(=O)NC(C)C)n3)cc2n1C [Compound 128] | 102 to 959 nM |  |  |
| Cc1cccc(-n2cc(CNC(=O)c3cccc(C(=O)NC(C)C)n3)cn2)c1 [Compound 129] | 4 to 97 nM and 4 to 19 nM |  |  |
| Cc1ccc(-n2cc(CNC(=O)c3cccc(C(=O)NC(C)C)n3)cn2)cc1 [Compound 130] | 4 to 19 nM and 4 to 97 nM |  |  |
| CC(C)NC(=O)c1cccc(C(=O)NCc2cnn(-c3ccc(F)c(Cl)c3)c2)n1 [Compound 131] | 4 to 97 nM |  |  |
| CC(C)NC(=O)c1cccc(C(=O)NCc2cnn(-c3cccc(Cl)c3)c2)n1 [Compound 132] | 4 to 97 nM |  |  |
| CC(C)NC(=O)c1cccc(C(=O)NCc2cnn(-c3ccc(Cl)cc3)c2)n1 [Compound 133] | 4 to 97 nM |  |  |
| CC(C)NC(=O)c1cccc(C(=O)NCc2cnn(-c3cccc(S(C)(=O)=O)c3)c2)n1 [Compound 136] | 4 to 97 nM |  |  |
| CC(C)NC(=O)c1cccc(C(=O)NCc2cnn(-c3cc(Cl)cc(Cl)c3)c2)n1 [Compound 138] | 4 to 19 nM and 4 to 97 nM |  |  |
| CC(C)NC(=O)c1cccc(C(=O)NCc2cnn(-c3cccc(F)c3)c2)n1 [Compound 139] | 4 to 97 nM |  |  |
| CC(C)NC(=O)c1cccc(C(=O)NCc2cnn(-c3cccnc3)c2)n1 [Compound 141] | 4 to 97 nM |  |  |
| CC(C)NC(=O)c1cccc(C(=O)NCc2cnn(-c3ccc(CN)cc3)c2)n1 [Compound 143] | 4 to 97 nM |  |  |
| CC(C)NC(=O)c1cccc(C(=O)NCc2cnn(-c3cnc4ccccc4c3)c2)n1 [Compound 144] | 4 to 19 nM and 4 to 97 nM | 7 nM |  |
| CC(C)NC(=O)c1cccc(C(=O)NCc2cnn(-c3cncnc3)c2)n1 [Compound 145] | 102 to 959 nM |  |  |
| Cc1nc2cc(-n3cc(CNC(=O)c4cccc(C(=O)NC(C)C)n4)cn3)ccc2[nH]1 [Compound 146] | 4 to 97 nM |  |  |
| CC(C)NC(=O)c1cccc(C(=O)NCc2cnn(-c3ccc4ncn(C)c4c3)c2)n1 [Compound 147] | 4 to 97 nM |  |  |
| CC(C)NC(=O)c1cccc(C(=O)NCc2cnn(-c3ccc4[nH]cnc4c3)c2)n1 [Compound 148] | 4 to 97 nM |  |  |
| Cc1ccc2cc(-n3cc(CNC(=O)c4cccc(C(=O)NC(C)C)n4)cn3)ccc2n1 [Compound 149] | 4 to 19 nM and 4 to 97 nM | 14 nM | 14 nM |

Source: US8278337B2, “Substituted pyridines that are JNK inhibitors” (Merck Sharp & Dohme, priority 2006, dated 2012)
